Earlier results in patent US20260284233A1, “IMAGING METHODS AND AGENTS FOR GRADING AND STAGING AND SUBSEQUENT TREATMENT OF PROSTATE CANCER IN A PATIENT” (Progenics Pharmaceuticals, Inc., priority 2023, published 2026).

How the values were obtained:
[1] = tested on: extracellular domain of PSMA
[2] = 333 MBq (9 mCi) dose; data from clinical trials; compared with commonly used tracers for oncologic imaging

## O=C(O)CC[C@H](NC(=O)N[C@@H](CCCCNC(=O)c1ccc([18F])nc1)C(=O)O)C(=O)O [piflufolastat F18]
[1]
  binding affinity to the extracellular domain of PSMA: high affinity
[2]
  mean effective radiation dose to the whole body: lower than commonly used tracers for oncologic imaging
